Results: ChEMBL document CHEMBL4689842, “EUbOPEN Chemogenomics Library wave 1” (2021)

How the values were obtained:
Format in all cases: toxicity, cell-based
HEK-293T = test: Incucyte cell viability with HEK293T; conditions: human, 10 µM, compound concentration 10 uM
U2OS = test: Incucyte cell viability with U2OS; conditions: human, 10 µM, compound concentration 10 uM
Fibroblast = test: Incucyte cell viability with human fibroblast; conditions: 10 µM, compound concentration 10 uM
[1] = 0 h, replicate number 1, timepoint 0 hours
[2] = 6 h, replicate number 1, timepoint 6 hours
[3] = 12 h, replicate number 1, timepoint 12 hours
[4] = 18 h, replicate number 1, timepoint 18 hours
[5] = 24 h, replicate number 1, timepoint 24 hours
[6] = 0 h, replicate number 2, timepoint 0 hours
[7] = 6 h, replicate number 2, timepoint 6 hours
[8] = 12 h, replicate number 2, timepoint 12 hours
[9] = 18 h, replicate number 2, timepoint 18 hours
[10] = 24 h, replicate number 2, timepoint 24 hours
Also: filed as whole numbers so only -1 and 0 and 1 occur.

| SMILES | Growth Rate (HEK-293T; [1]) | Growth Rate (HEK-293T; [2]) | Growth Rate (HEK-293T; [3]) | Growth Rate (HEK-293T; [4]) | Growth Rate (HEK-293T; [5]) | Growth Rate (U2OS; [2]) | Growth Rate (U2OS; [7]) | Growth Rate (U2OS; [3]) | Growth Rate (U2OS; [4]) | Growth Rate (U2OS; [5]) | Growth Rate (Fibroblast; [1]) | Growth Rate (Fibroblast; [2]) | Growth Rate (Fibroblast; [7]) | Growth Rate (Fibroblast; [4]) | Growth Rate (Fibroblast; [9]) | Growth Rate (Fibroblast; [5]) | Growth Rate (HEK-293T; [6]) | Growth Rate (U2OS; [1]) | Growth Rate (Fibroblast; [3]) | Growth Rate (Fibroblast; [10]) | further results |
| --- | --- | --- | --- | --- | --- | --- | --- | --- | --- | --- | --- | --- | --- | --- | --- | --- | --- | --- | --- | --- | --- |
| OCCn1cc(-c2cnc3nnn(Cc4ccc5ncccc5c4)c3n2)cn1 [PF-04217903] | 1 | 0 | 1 | 1 | 1 | 1 | 0 | 1 | 1 | 1 | 0 | 1 | 0 | 1 | 0 | 1 |  |  |  |  | Growth Rate (U2OS; [6]): 0; Growth Rate (U2OS; [8]): 0; Growth Rate (U2OS; [9]): 0; Growth Rate (U2OS; [10]): 0; Growth Rate (Fibroblast; [8]): 0 |
| Cc1c(C(=O)O)cc(-c2ccc(C3CCNCC3)cc2)c2ccc(-c3ccc(C(F)(F)F)cc3)cc12.Cl |  | 0 | 0 | 0 | 0 |  |  | 1 | 0 | 0 | 0 | 0 | 1 | 0 |  | 0 | 0 | 0 | 0 |  | Growth Rate (U2OS; [9]): 1; Growth Rate (U2OS; [10]): 1; Growth Rate (Fibroblast; [6]): 1 |
| CCCCCCCCCCCCCCCCOC[C@H](COP(=O)([O-])OCC[N+](C)(C)C)OC(C)=O | 1 | 1 | 1 | 1 | 1 | 0 |  | 1 | 0 | 1 | 0 | 1 | 0 | 1 | 0 | 1 | 0 |  | 1 | 0 | Growth Rate (U2OS; [8]): 0; Growth Rate (U2OS; [9]): 1 |
| Cc1nnc2c3ccccc3c(N[C@@H](C)[C@H](c3ccccc3)N(C)C)nn12 | 0 | 0 | 0 | 0 | 0 | 0 | 1 | 1 | 1 | 1 | 0 | 1 | 0 | 1 | 0 | 1 | 1 | 0 | 1 | 0 |  |
| C=C(c1ccc(C(=O)O)cc1)c1cc2c(cc1C)C(C)(C)CCC2(C)C [BEXAROTENE] | 1 | 0 | 0 | 0 | 0 |  |  | 1 | 1 | 1 | 0 |  |  | 1 |  | 1 | 0 | 0 | 1 |  | Growth Rate (HEK-293T; [7]): 1; Growth Rate (HEK-293T; [8]): 1; Growth Rate (U2OS; [6]): -1 |
| N[C@@H](Cc1cc(I)c(Oc2ccc(O)c(I)c2)c(I)c1)C(=O)O [LIOTHYRONINE] | 0 | 1 | 1 | 1 | 1 |  | 1 | 1 | 1 | 1 | 0 | 0 |  | 0 | 1 | 0 |  | 0 | 0 | 1 | Growth Rate (HEK-293T; [8]): 0; Growth Rate (HEK-293T; [9]): 0; Growth Rate (HEK-293T; [10]): 0 |
| CN1CCN(c2cnc3c(C4CCN(C(=O)c5ccc(OC(F)(F)F)cc5N)CC4)ncnc3c2)CC1 [BAY-885] | 0 |  |  |  |  | 0 | 1 | 0 | 0 | 0 | 1 | 0 |  | 0 | 1 | 0 | 1 | 0 | 1 | 1 | Growth Rate (HEK-293T; [10]): 1; Growth Rate (U2OS; [8]): 1; Growth Rate (U2OS; [9]): 1; Growth Rate (U2OS; [10]): 1; Growth Rate (Fibroblast; [6]): 0 |
| Cn1cc(CCn2cnc(-c3cnn(C)c3)c2-c2ccc(C#N)cc2)cn1 | 1 |  |  | 1 | 1 | 1 |  | 1 | 1 | 1 |  | 0 | 1 | 1 | 0 | 1 |  | 1 | 1 | 0 | Growth Rate (HEK-293T; [7]): 1; Growth Rate (HEK-293T; [8]): 1; Growth Rate (U2OS; [6]): 0; Growth Rate (U2OS; [9]): 0; Growth Rate (Fibroblast; [6]): 0 |
| NS(=O)(=O)c1c(Cl)ccc(NC(=O)Nc2cccc(Cl)c2Cl)c1O | 1 | 1 | 1 | 0 | 0 |  |  | 0 | 1 | 1 | 0 |  | 0 | 1 | 0 | 1 | 0 | 0 | 1 | 0 | Growth Rate (HEK-293T; [9]): 1; Growth Rate (HEK-293T; [10]): 1; Growth Rate (U2OS; [10]): 0; Growth Rate (Fibroblast; [6]): 1; Growth Rate (Fibroblast; [8]): 0 |
| CCCCN(CCCC)C(=O)CN1C[C@H](c2cc(OC)c3c(c2)OCO3)[C@@H](C(=O)O)[C@@H]1CC(C)(C)CCC.Cc1ccc(S(=O)(=O)O)cc1 | 0 | 1 | 1 | 1 | 1 | 0 |  | 1 | 0 | 1 | 0 | 1 |  | 1 |  | 0 |  | 0 | 1 | 1 | Growth Rate (HEK-293T; [7]): 0; Growth Rate (HEK-293T; [8]): 0; Growth Rate (HEK-293T; [9]): 0; Growth Rate (HEK-293T; [10]): 0; Growth Rate (U2OS; [9]): 1 |
| CC(C)(C)OC(=O)N1CCCC1CNC1CCC(c2cc(F)ccc2F)(S(=O)(=O)c2ccc(Cl)cc2)CC1 (centres undefined) [GSI-NC] | 0 | 0 | 1 | 1 | 1 | 0 |  | 0 | 0 | 0 |  | 0 | 1 | 0 |  | 0 | 1 | 0 | 0 |  | Growth Rate (HEK-293T; [8]): 0; Growth Rate (HEK-293T; [10]): 0; Growth Rate (Fibroblast; [6]): 0 |
| CC(=O)C1=C(C)N(c2cccc(C(F)(F)F)c2)C(=O)N[C@@H]1c1ccc(C#N)nc1 [BAY-678] | 0 |  |  | 1 | 1 | 0 |  | 0 | 0 | 0 | 1 | 1 | 0 | 0 |  | 0 | 1 | 0 | 0 |  | Growth Rate (U2OS; [8]): 1; Growth Rate (Fibroblast; [6]): 0 |
| CC(C)(Sc1ccc(CCN(CCCCC2CCCCC2)C(=O)NC2CCCCC2)cc1)C(=O)O [GW7647] | 1 | 0 | 0 | 0 | 0 |  | 1 | 1 | 1 | 1 | 0 | 0 |  | 1 |  | 0 | 0 | 0 | 0 | 1 | Growth Rate (HEK-293T; [7]): 1; Growth Rate (HEK-293T; [8]): 1; Growth Rate (HEK-293T; [9]): 1 |
| O=S(=O)(NC1CCC(c2cc(F)ccc2F)(S(=O)(=O)c2ccc(Cl)cc2)CC1)C(F)(F)F (centres undefined) [MRK-560] | 0 | 1 | 0 | 0 | 0 | 1 | 0 | 1 | 0 | 1 | 0 |  | 1 | 1 |  | 1 | 1 | 1 | 1 | 0 | Growth Rate (U2OS; [10]): 0; Growth Rate (Fibroblast; [8]): 0 |
| CC(C)NC(=O)c1ccc(C#Cc2ccncc2)cn1 | 0 | 0 | 0 | 0 | 0 |  |  | 1 | 1 | 0 | 0 | 1 | 0 | 1 |  | 1 |  | 0 | 0 |  | Growth Rate (U2OS; [10]): 1; Growth Rate (Fibroblast; [6]): 1; Growth Rate (Fibroblast; [8]): 1 |
| C=CC(=O)N1CCC([C@@H]2CCNc3c(C(N)=O)c(-c4ccc(Oc5ccccc5)cc4)nn32)CC1 [ZANUBRUTINIB] | 0 |  | 0 | 0 | 0 | 0 |  | 0 | 0 | 0 | 1 | 0 |  | 0 | 1 | 0 |  | 0 | 0 | 1 | Growth Rate (Fibroblast; [6]): 0 |
| Cc1nnn(-c2ccc(-c3ccc(C4(C(=O)O)CC4)cc3)cc2)c1NC(=O)O[C@H](C)c1ccccc1 | 0 | 0 | 0 | 0 | 0 |  |  | 1 | 1 | 1 | 0 |  |  |  |  |  |  | 0 |  |  | Growth Rate (HEK-293T; [8]): 1; Growth Rate (HEK-293T; [9]): 1 |
| COc1ccnc(N2CCC3(CCCN(Cc4c[nH]c5ccccc45)C3=O)CC2)n1 | 0 | 1 | 1 | 1 | 1 |  | 0 | 1 | 1 | 0 | 0 | 0 |  | 0 |  | 0 |  | 1 | 0 |  | Growth Rate (HEK-293T; [8]): 0; Growth Rate (HEK-293T; [9]): 0; Growth Rate (HEK-293T; [10]): 0; Growth Rate (U2OS; [8]): 0 |
| C#C[C@]1(O)CC[C@H]2[C@@H]3CCc4cc(O)ccc4[C@H]3CC[C@@]21C [ETHINYL ESTRADIOL] | -1 |  |  |  |  | 0 | 1 | 0 | 0 | 0 |  | 0 |  | 0 |  | 0 | 0 |  | 0 |  | Growth Rate (HEK-293T; [10]): 1; Growth Rate (U2OS; [6]): 0 |
